Experimental data reported in article PMC10385868 (Viruses, 2023).
Converted amounts (≈) assume the structure as drawn. “And” between values parts separate entries of the source, which are not always exact repeats. Identical values can stand only once. Like-named read-outs stand apart in the source and are kept apart here.

Experiments:
VEEV-TC83 = assay: microbe, parasite or virus in culture; format: cell-based; conditions: Venezuelan equine encephalitis virus, HeLa, read-out: VEEV-TC83 EC50
VEEV nsP2 protease [1] = biological target: T1, VEEV nsP2 protease (Venezuelan equine encephalitis virus, UniProt P27282); assay: biochemical
in vitro [2] = conditions: human
VEEV-Trinidad = assay: microbe, parasite or virus in culture; format: cell-based; conditions: Venezuelan equine encephalitis virus
CHIKV [3] = assay: microbe, parasite or virus in culture; format: cell-based; conditions: Chikungunya virus, U2OS, read-out: CHIKV EC50
WEEV [4] = assay: microbe, parasite or virus in culture; format: cell-based; conditions: Western equine encephalitis virus, HeLa, read-out: WEEV EC50
in vitro [5] = conditions: SD, rat, microsomes
EEEV [6] = assay: microbe, parasite or virus in culture; format: cell-based; conditions: Eastern equine encephalitis virus, A549, read-out: EEEV EC50
in vitro [7] = assay: in vitro
[8] = rat, microsomes
VEEV-Trd = assay: microbe, parasite or virus in culture; format: cell-based, Venezuelan equine encephalitis virus
VEEV nsP2 protease [9] = biological target: T1, VEEV nsP2 protease; format: biochemical
in vitro [10] = conditions: PAMPA
VEEV Trinidad = format: cell-based, Venezuelan equine encephalitis virus
VEEV nsP2 protease [11] = biological target: T1, VEEV nsP2 protease; assay: biochemical; format: biochemical
in vitro [12] = conditions: African green monkey
EEEV [13] = format: cell-based, eastern equine encephalitis virus
CHIKV [14] = format: cell-based, Chikungunya virus
VEEV = format: cell-based, Venezuelan equine encephalitis virus
WEEV [15] = format: cell-based, Western equine encephalitis virus
[16] = read-out: VEEV nsP2 PROTEASE k2/Ki
[17] = A549, read-out: VEEV-Trinidad EC50
[18] = Venezuelan equine encephalitis virus

T1 sequence (P27282 1003-1322 limits assumed): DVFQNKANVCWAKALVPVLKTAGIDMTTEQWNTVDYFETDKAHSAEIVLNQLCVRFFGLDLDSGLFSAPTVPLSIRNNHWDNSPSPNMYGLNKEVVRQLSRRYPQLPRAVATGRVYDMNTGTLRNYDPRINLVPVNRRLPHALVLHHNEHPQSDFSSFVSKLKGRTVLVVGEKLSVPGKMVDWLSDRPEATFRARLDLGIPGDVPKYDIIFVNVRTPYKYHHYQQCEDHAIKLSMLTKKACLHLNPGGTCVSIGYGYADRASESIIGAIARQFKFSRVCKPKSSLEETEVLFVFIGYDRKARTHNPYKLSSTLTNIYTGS

## CC(C)CCNC(=O)[C@H](CC(C)C)NC(=O)[C@H]1O[C@@H]1C(=O)NCCCCO [NCGC00488906-01]
VEEV-TC83
  EC50: 26.6 µM
VEEV nsP2 protease [1]; [16]
  kinact/KI: 12 M⁻¹ s⁻¹
In vitro [2]
  CC50: > 50 µM
VEEV-Trinidad; A549
  EC50: 26 µM
VEEV-Trinidad; [17]
  EC50: 26.4 µM
CHIKV [3]
  EC50: 18.5 µM
WEEV [4]
  EC50: 20.4 µM
In vitro [5]
  half-life: > 30 min
EEEV [6]
  EC50: > 100 µM
physchem
  solubility: 15.9 µg/mL (≈ 41.2 µM)
In vitro [7]; African green monkey
  CC50: > 100 µM
In vitro [7]; human
  CC50: > 50 µM
[8]
  Rat_SD/Microsomes t1/2: >30 m

## CC(C)CCNC(=O)C(CC(C)C)NC(=O)C1OC1C(=O)O (stereo not shown) [E64c, reference compound]
VEEV-Trd
  efficacy in cell-based assays: ineffective
VEEV nsP2 protease [9]
  inhibition in discontinuous assays (SDS-PAGE gels): partial inhibition
VEEV-Trinidad; A549
  EC50: > 100 µM
In vitro [10]
  Papp: < 1 ×10⁻⁶ cm/s
physchem
  solubility: 33 µg/mL (≈ 105 µM)
In vitro [7]; African green monkey
  CC50: > 100 µM
[8]
  Rat_SD/Microsomes t1/2: >30 m

## O=c1[nH]c2ccccc2n1CCCN1CCN(C(c2ccccc2)c2ccccc2)CC1 [oxatomide]
VEEV Trinidad
  antiviral activity in plaque assays: notable antiviral activities
  reduction of VEEV viral replication in plaque assays: > 5 log

## O=c1[nH]c(=O)n(-c2ccccc2F)c(O)c1/C=C1\C=Nc2ccccc21 [MLS001197204-01]
VEEV-Trd; read-out: EC50
  EC50: > 50 µM
Cell viability
  CC50: > 50 µM
VEEV nsP2 protease [11]; read-out: IC50
  IC50: 30 ± 20 µM

## CC(=O)NC1C(=O)N(CCN2CCOCC2)c2ccc(Br)cc21 (stereo not shown) [MLS001215987-01]
VEEV-Trd; [18]
  EC50: > 50 µM
VEEV nsP2 protease [11]
  IC50: 14 ± 3 µM
In vitro [12]
  CC50: > 50 µM

## COc1cc2c(cc1OC)C(c1cc(Br)ccc1F)N(C(=O)CCl)CC2 (stereo not shown) [MLS001198393-01]
VEEV-Trd; read-out: EC50
  EC50: > 16.7 µM
Cell viability
  CC50: > 50 µM
VEEV nsP2 protease [11]; read-out: IC50
  IC50: > 200 µM

## CCCNC(=O)[C@H]1O[C@@H]1C(=O)N[C@H](C(=O)N1CCC[C@H]1C(=O)OC)[C@@H](C)CC [CA074me, CA074 methyl ester]
EEEV [13]
  Average titer: 3.12 × 10^4 and 3.20 × 10^6 and 3.18 × 10^7 and 4.57 × 10^7
  reduction in PFU: 2 log
VEEV nsP2 protease [1]
  Ki: 1200 ± 500 µM
CHIKV [14]
  reduction in PFU: 2 log
VEEV-Trinidad; A549
  EC50: 11 µM
VEEV
  efficacy in plaque assays: effective
  reduction in plaque-forming units (PFU): ~6 log
  viral titer reduction: > 5 logs
In vitro [10]
  Papp: 33 ×10⁻⁶ cm/s
WEEV [15]
  reduction in PFU: 2 log
In vitro [5]
  half-life: 11.1 min
other
  PAMPA: 33 ×10⁻⁶ cm/s
physchem
  solubility: 22 µg/mL (≈ 55.3 µM)
VEEV Trinidad
  reduction in plaque forming units (PFU): ~ 5 log
In vitro [7]; African green monkey
  CC50: > 100 µM
[8]
  Rat_SD/Microsomes t1/2: 11.1 m

## C#Cc1cc(N2CCN(C(=O)c3ccoc3)CC2)n2nc(-c3cccc(Cl)c3)cc2n1 [MLS003116111-01]
VEEV Trinidad
  antiviral activity in plaque assays: notable antiviral activities

## CC(C)CCNC(=O)[C@H](CC(C)C)NC(=O)[C@H]1O[C@@H]1C(=O)NCc1cccc(C#N)c1 [NCGC00488909-01]
VEEV-TC83
  EC50: 1.48 µM
VEEV nsP2 protease [1]
  Ki: 3 µM
VEEV nsP2 protease [1]; [16]
  kinact/KI: 862 M⁻¹ s⁻¹
In vitro [2]
  CC50: > 50 µM
VEEV-Trinidad; A549
  EC50: 1.8 µM
VEEV-Trinidad; [17]
  EC50: 1.76 µM
CHIKV [3]
  EC50: 9.85 µM
WEEV [4]
  EC50: 5.02 µM
EEEV [6]
  EC50: 43 µM
In vitro [7]; African green monkey
  CC50: > 100 µM
In vitro [7]; human
  CC50: > 50 µM

## CC(C)CCNC(=O)[C@H](CC(C)C)NC(=O)[C@H]1O[C@@H]1C(=O)NCc1ccc(C#N)cc1 [NCGC00488904-01]
VEEV-TC83
  EC50: 4.09 µM
VEEV nsP2 protease [1]; [16]
  kinact/KI: 61 M⁻¹ s⁻¹
In vitro [2]
  CC50: > 50 µM
VEEV-Trinidad; A549
  EC50: 4 µM
VEEV-Trinidad; [17]
  EC50: 4.29 µM
CHIKV [3]
  EC50: 14.8 µM
WEEV [4]
  EC50: 5.15 µM
EEEV [6]
  EC50: 16.2 µM
In vitro [7]; African green monkey
  CC50: > 100 µM
In vitro [7]; human
  CC50: > 50 µM

## COc1cc(NS(C)(=O)=O)ccc1Nc1c2ccccc2nc2ccccc12 [amsacrine]
VEEV Trinidad
  antiviral activity in plaque assays: notable antiviral activities

## CCc1ccc2c(c1)C(NC(C)=O)C(=O)N2CCN1CCOCC1 (stereo not shown) [MLS001215951-01]
VEEV-Trd; [18]
  EC50: > 50 µM
VEEV nsP2 protease [11]
  IC50: 18 ± 7 µM
In vitro [12]
  CC50: > 50 µM

## O=C(CSc1ccccn1)Nc1nonc1[N+](=O)[O-] [MLS001030320-01]
VEEV-Trd; read-out: EC50
  EC50: > 50 µM
Cell viability
  CC50: > 50 µM
VEEV nsP2 protease [11]; read-out: IC50
  IC50: > 100 µM

## CCOC(=O)[C@H]1O[C@@H]1C(=O)N[C@@H](CC(C)C)C(=O)NCCC(C)C [E64d]
VEEV-Trd
  efficacy in cell-based assays: ineffective
EEEV [13]
  Average titer: 2.28 × 10^8 and 2.27 × 10^8
  effect on titers: no effect
VEEV nsP2 protease [9]
  inhibition in discontinuous assays (SDS-PAGE gels): complete inhibition
VEEV nsP2 protease [1]
  Ki: 40 ± 30 µM
VEEV nsP2 protease [1]; pH 7
  k2: 0.10 ± 0.06 min⁻¹
VEEV nsP2 protease [1]; pH 7, read-out: k2/Ki
  kinact/KI: 33.3 M⁻¹ s⁻¹
CHIKV [14]
  effect on titers: minor reductions
VEEV
  effect on titers: minor reductions
In vitro [10]
  Papp: 89 ×10⁻⁶ cm/s
WEEV [15]
  Average titer: 2.13 × 10^6 and 2.16 × 10^6
  effect on titers: no effect
physchem
  solubility: 24 µg/mL (≈ 70.1 µM)
[8]
  Rat_SD/Microsomes t1/2: 1.5 m

## COc1ccc(C2CC(c3cccs3)=NN2C(=O)CCl)cc1OC (stereo not shown) [MLS001178292-01]
VEEV-Trd; at 50 µM
  antiviral activity against VEEV-Trd in cell-based assays: did not demonstrate significant antiviral activity
Cell viability
  CC50: > 50 µM
  cytotoxicity: cytotoxic
VEEV nsP2 protease [11]; read-out: IC50
  IC50: > 200 µM
